“Also recorded” adds a separate entry of the source. Read-outs that look alike come from different tables or passages of the source. Where no end group is shown, it is not given here.
Columns and labels:
iGABAARI = assay: whole-cell patch-clamp single-channel currents in β cells of intact human islets, iGABAARI; format: cell-based; details: for GABA-activated single-channel conductance: 100 nM GABA; for reduction of Ka for GABA activation in T2D donors: T2D vs ND donors
Procedure: (§1) Human islets were generously provided by the Nordic Network for Clinical Islet Transplantation, supported by EXODIAB and the Juvenile Diabetes Research Foundation. All procedures were approved by the regional ethics committee in Uppsala and informed consent obtained by appropriate measures from donors or their relatives. […] The islets were then hand-picked and cultured free-floating in CMRL 1066 (ICN Biomedicals, Costa Mesa, CA, USA) supplemented with 10 mM HEPES, 2 mM L-glutamine, 50 jig/ml gentamicin, 0.25 jig/ml fungizone (GIBCO, BRL, Gaithersburg, MD, USA), 20 jig/ml ciprofloxacin (Bayer Healthcare, Leverkusen, Germany), and 10 mM nicotinamide at 37° C. in humidified atmosphere containing 5% CO2, vol/vol and used in the experiments from second day of incubation up to 10 days of culturing.
(§2) The whole-cell patch-clamp configuration was obtained on intact islets using the blind patch-clamp technique (Hamill et al., 1981; Jin et al., 2011; Neher and Sakmann, 1976) and single-channel currents were recorded at room temperature (20-22° C.) or at 34° C. The single intact islet was held by the holding pipette and approached by the recording pipette from the other side (see FIG. 1a). The holding and recording pipettes were made from borosilicate glass. During experiments, the pancreatic islets were perfused with the extracellular solution (mM): 137 NaCl, 5.6 KCl, 2.6 CaCl2, 1.2 MgCl2, 10 HEPES and 20 glucose (pH 7.4 using NaOH) at the rate of 3 mL/min. The intracellular solution consisted of (mM): 135 CsCl, 30 CsOH, 1 MgCl2, 10 EGTA, 5 HEPES and 3 Mg-ATP (pH 7.2 with HCl). Drugs were purchased from Sigma-Aldrich (Steinheim, Germany) or Ascent Scientific (Bristol, UK). Pentobarbital, propofol, GLP-1 and the GABAAR antagonist SR95531 were dissolved in the extracellular solution. Diazepam, zolpidem and the GABAAR antagonist picrotoxin stock solutions were made in dimethyl sulfoxide (DMSO) and then dissolved in the extracellular solution. […] Recordings were done using an Axopatch 200B amplifier, filtered at 2 kHz, digitized on-line at 10 kHz using an analog-to-digital converter and Clampex 10.5 (Molecular Devices, CA, USA) software. The access resistance was monitored and if it changed by more than 25%, the recording was rejected. The single-channel parameters (amplitude, frequency/opening rate, conductance, open probability Po, mean current Imean and mean open time To) were analyzed by Channel3 (Nicholas Laver, Derek Laver, the University of Newcastle, Australia) and Clampfit 10.5 (Molecular Devices, USA). We used a simplified version of a model, previously established by Jones and Westbrook (Jones and Westbrook, 1995) to describe the activation of GABAA receptors (see FIG. 2a model scheme). Simulations of opening rate and mean open time were generated from this theoretical model using the ‘Q-matrix’ method of Colquhoun and Hawkes (Colquhoun and Hawkes, 1981, 1982). We accounted for the effects of missed events due to filtering using the ‘effective rate constant’ method of Blatz and Magleby (Blatz and Magleby, 1986) incorporating an event dead-time of 0.1 ms.

[1] = tested on: iGABAARs in human pancreatic islet β cells; format: cell-based
Procedure: as §1, §2

[2] = cited from earlier work
[3] = tested on: insulin granule exocytosis in human islet cells; assay: insulin granule exocytosis imaging by TIRF microscopy; format: cell-based
Procedure: The islets were dissociated into single cells in 0.0025% trypsin in cell dissociation buffer (Hank's based) for 3-5 minutes. Cells were washed once in serum-containing medium, plated onto 22-mm polylysine-coated coverslips and allowed to settle overnight. Adenovirus particles adNPY-Venus (Tsuboi et al., 2006) or adNPY-mCherry (Meur et al., 2010) was added and cells were imaged 24-36 hours later. Cells selected for experiments expressed the granule marker and appeared healthy. Cells were imaged in a standard solution containing (mM): 138 NaCl, 5.6 KCl, 1.2 MgCl2, 2.6 CaCl2, 20 D-glucose, 5 HEPES (pH 7.4 with NaOH) (Barg et al., 2002; Gandasi and Barg, 2014). For depolarization dependent exocytosis experiments, glucose was 10 mM and the solution supplemented with 2 μM forskolin and 200 μM diazoxide, a K^+-ATP-channel opener that prevents glucose-dependent depolarization. Exocytosis was then evoked with high K^+ solution (75 mM KCl equimolarly replacing NaCl). High K^+ was applied by computer-timed local pressure ejection through a glass pipette similar to those used for patch clamp. All experiments were carried out at ˜32° C. Cells were imaged using a custom-built lens-type total internal reflection (TIRF) microscope based on an Axiovert 135 microscope with a 100×/1.45 objective (Carl Zeiss). Excitation was from a DPSS laser at 491 (Cobolt, Stockholm, Sweden), controlled with an acousto-optical tunable filter (AA-Opto, France) and using dichroic Di01-R488/561 (Semrock) and emission filter FF01-523/610 (Semrock). Scaling was 160 nm per pixel and exposure time 100 ms per frame at 10 frames/s. Exocytosis events were found by eye. The moment of exocytosis was defined as the first significant change (2 standard deviations) from the pre-exocytosis baseline. This definition applied to both types of events, with or without preceding flash. The decay time was then defined as the time from exocytosis until the signal reached less than one third of the amplitude of the event. Traces were read out as DF, defined as average fluorescence in a 0.5 μm circle minus the average fluorescence in a surrounding annulus of 0.8 μm. The point of exocytosis was calculated by fitting the granule fluorescence during exocytosis with a discontinuous function (Eq 1), which assumes constant fluorescence before fusion, an inverted exponential decay just after fusion, and finally exponential decay during content release:
where t is time; c is average fluorescence in a 0.48 μm wide circle at the granule site; A1, A2 and A3 are the fluorescence values at the plateaus; τ1 and τ2 are the decay constants for the fluorescence increase after fusion and content release; and t1 and t2 are the times of fusion and release, respectively.

human islets = assay: glucose-stimulated insulin secretion in human islets; format: cell-based
Procedure: The incubation medium was subsequently collected, the islets sonicated briefly (1-2 periods of 10 s) in acidic ethanol and frozen overnight. Samples from the medium and the islets were appropriately diluted and analyzed in duplicates for insulin using an immunoassay kit from Mesoscale Discovery (Rockville, MD, USA). Secretion was normalized to insulin content and expressed in relation to that at 20 mM glucose. In some experiments, the islets were placed in a closed 10-μL Teflon tubing perfusion. The chamber was perfused with buffer at a rate of 60 μL/min (AutoMate Scientific, Berkeley, CA). […] Three fractions were collected for each condition and analyzed for insulin. The results are presented as one data point per condition, which represents the average of the last two fractions at that condition. The first fraction was excluded since it was influenced by the preceding condition.

iGABAARII = assay: whole-cell patch-clamp single-channel currents in β cells of intact human islets, iGABAARII; format: cell-based
Procedure: as §1, §2

[4] = activated by interstitial GABA, room temperature
[5] = 20 mM glucose, with GABA, one T2D donor
[6] = diazepam 1 μM, propofol 10 μM, pentobarbital 100 μM, zolpidem 200 nM
[7] = diazepam 1 μM, propofol 10 μM, pentobarbital 100 μM, zolpidem 100 or 200 nM
[8] = GLP-1 application and following washout, n=5

NCCCC(=O)O [GABA, gamma-aminobutyric acid]
GABA-activated single-channel conductance (iGABAARI; islets from ND donors): 41±3 pS
GABA-activated single-channel conductance (iGABAARI; islets from T2D donors): 55±5 pS
GABA concentration at maximal rate (frequency) of channel openings (iGABAARI; ND donors): 100 nM
reduction of Ka for GABA activation in T2D donors (iGABAARI; 34° C.): ~3 fold
reduction of Ka for GABA activation in T2D donors (iGABAARI; RT): 6 fold
cord conductance (iGABAARI; [4]): 37 pS
GABA concentration above which receptors are desensitized and stop working [1]: exceeding 1000 nM
optimal GABA concentrations for active iGABAARs [1]: 100 nM to submicromolar
effect on mean current (Imean) ([1]; 100 nM GABA, Vp=−70 mV, 34° C.): significantly (P<0.05) enhanced
effect on open probability (Po) ([1]; 100 nM GABA, Vp=−70 mV, 34° C.): significantly (P<0.05) enhanced
GABA concentration at which GABA-activated Cl− currents were evoked ([1]; GABA applied 1 to 10^4 nM): > 10 nM
effect on mean open times To ([1]; islets from ND and T2D donors): did not affect
effect on rate (frequency) of channel openings ([1]; islets from ND and T2D donors): increased
GABA concentration at which channels start to desensitize ([1]; kinetic model): about 1 μM
time to maximum blood serum level of GABA ([2]; after administration in connection with ingestion of food): approximately 45 minutes
time after which blood serum levels of GABA markedly decrease ([2]; from the administration of GABA): approximately 90 minutes
exocytosis ([3]; 20 mM glucose >10 min, GABA present, ND donors): ~5 granules/min
exocytosis events per area and time ([3]; 20 mM glucose >10 min, GABA present, two ND donors, n=6): 0.095±0.01 10^−3·tm^−2·s^−1
exocytosis [3, 5]: ~1 granules/min
exocytosis events per area and time [3, 5]: 0.019±0.008 10^−3·tm^−2·s^−1
exocytosis for an average-sized cell ([3]; 75 mM K+ depolarization, 100 nM GABA): ~150 granules/min
exocytosis events per area and time ([3]; 75 mM K+ depolarization, 100 nM GABA, n=7): 2.5±0.6 10^−3·tm^−2·s^−1
loss of NPY-Venus from individual granules (decay constant) ([3]; 75 mM K+ depolarization, presence of GABA): 0.86 ± 0.09 s
insulin secretion normalized to the 20 mM glucose response (human islets; 100 nM GABA, 10 ND donors): 1.6±0.2
increase of insulin secretion (human islets; 100 nM GABA, 10 ND donors, average): approximately 60%
insulin secretion normalized to the 20 mM glucose response (human islets; GABA, islets from three ND donors): 0.7±0.01
GABA concentration at peak opening rate (iGABAARII; ND donors, 34° C.): 1 µM
increase of Ka on raising the temperature to 34° C. (iGABAARII; ND donors, 34° C. vs RT): 23 fold
GABA concentration at peak opening rate (iGABAARII; ND donors, room temperature): 0.1 µM
reduction of Ka for GABA activation in T2D donors (iGABAARII; T2D vs ND donors, 34° C.): 300 fold
cord conductance (iGABAARII; [4]): 76 pS

Br.COc1ccc(-c2ccc(=N)n(CCCC(=O)O)n2)cc1 [SR95531]
inhibition of iGABAAR (GABA-activated) currents [1]: inhibited

CN1C(=O)CN=C(c2ccccc2)c2cc(Cl)ccc21 [diazepam]
effect on mean single-channel current (Imean) [1, 6]: significantly increased
effect on opening frequency of iGABAARs [1, 6]: significantly increased
modulation of iGABAAR-mediated single-channel currents [1, 7]: enhanced

CCCC(C)C1(CC)C(=O)NC(=O)NC1=O (stereo not shown) [pentobarbital, 5-ethyl-5-(1-methylbutyl)-barbiturate]
effect on mean single-channel current (Imean) [1, 6]: significantly increased
effect on opening frequency of iGABAARs [1, 6]: significantly increased
modulation of iGABAAR-mediated single-channel currents [1, 7]: enhanced

CC(C)c1cccc(C(C)C)c1O [propofol]
effect on mean single-channel current (Imean) [1]: significantly increased
effect on opening frequency of iGABAARs [1]: significantly increased
modulation of iGABAAR-mediated single-channel currents [1]: enhanced

Cc1ccc(-c2nc3ccc(C)cn3c2CC(=O)N(C)C)cc1 [zolpidem]
effect on mean single-channel current (Imean) [1, 6]: not
effect on opening frequency of iGABAARs [1, 6]: not
modulation of iGABAAR-mediated single-channel currents [1, 7]: did not modulate and not

GLP-1: metabolic, gastrointestinal peptide hormone secreted by L-cells in the gut; enhances insulin secretion (HAEGTFTSDVSSYLEGQAAKEFIAWLVKGR; ends and bridges not checked; UniProt P01275 98-127, looked up) [reference compound]
effect on opening frequency of iGABAARI channels (iGABAARI; GLP-1 50 pM, n=6): significantly increased
effect on single-channel conductance (iGABAARI; [8]): did not significantly change
opening frequency / current enhancement after GLP-1 washout (iGABAARI; post GLP-1 vs before GLP-1 application): remained, albeit at a reduced level; also recorded: remained significantly higher
time β-cells remember the GLP-1 activation after GLP-1 is no longer in circulation ([1]; GABA signalling stays elevated in absence of GLP-1): up to 30 minutes
effect on iGABAAR-mediated single-channel currents ([1]; GLP-1 50 pM in the presence of GABA 10 nM): potentiated
effect on single-channel conductance (iGABAARII; [8]): did not significantly change

picrotoxin [reference compound]
inhibition of iGABAAR (GABA-activated) currents ([1]; antagonist 100 μM where stated): inhibited
effect on the GABA-induced change of insulin secretion (human islets; picrotoxin added with GABA, ND donors): reversed

Source: patent US12161695B2 (priority 2018, dated 2024)
